Measurements as given in ChEMBL document CHEMBL5131517 (ACS Med Chem Lett, 2022).

Assays:
[1] = target: Sodium-dependent dopamine transporter (Homo sapiens) (UniProt Q01959); experiment: Inhibition of DAT receptor (unknown origin); settings: concentration not given here
[2] = target: T1, Alpha-1D adrenergic receptor (Homo sapiens) (UniProt P25100); experiment: Inhibition of alpha1D receptor (unknown origin); settings: concentration not given here
T1 sequence (whole entry): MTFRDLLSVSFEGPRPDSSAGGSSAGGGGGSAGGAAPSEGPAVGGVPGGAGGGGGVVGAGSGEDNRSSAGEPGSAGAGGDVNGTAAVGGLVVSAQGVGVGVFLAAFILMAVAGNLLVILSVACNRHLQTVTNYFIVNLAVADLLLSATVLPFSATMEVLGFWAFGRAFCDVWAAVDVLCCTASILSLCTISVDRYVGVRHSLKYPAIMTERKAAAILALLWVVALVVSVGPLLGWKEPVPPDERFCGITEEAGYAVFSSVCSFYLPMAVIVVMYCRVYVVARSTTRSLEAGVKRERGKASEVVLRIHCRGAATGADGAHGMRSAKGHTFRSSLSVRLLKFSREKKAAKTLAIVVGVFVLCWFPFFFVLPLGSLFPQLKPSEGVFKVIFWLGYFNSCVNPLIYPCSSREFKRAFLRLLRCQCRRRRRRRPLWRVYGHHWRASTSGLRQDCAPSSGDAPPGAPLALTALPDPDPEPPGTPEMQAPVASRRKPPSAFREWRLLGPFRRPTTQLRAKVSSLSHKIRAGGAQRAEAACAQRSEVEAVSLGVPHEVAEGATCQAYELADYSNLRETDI

[3] = target: T2, 5-hydroxytryptamine receptor 2A (Homo sapiens, UniProt P28223); experiment: Binding affinity to 5HT2A receptor (unknown origin) assessed as inhibition constant
T2 sequence (P28223 whole entry): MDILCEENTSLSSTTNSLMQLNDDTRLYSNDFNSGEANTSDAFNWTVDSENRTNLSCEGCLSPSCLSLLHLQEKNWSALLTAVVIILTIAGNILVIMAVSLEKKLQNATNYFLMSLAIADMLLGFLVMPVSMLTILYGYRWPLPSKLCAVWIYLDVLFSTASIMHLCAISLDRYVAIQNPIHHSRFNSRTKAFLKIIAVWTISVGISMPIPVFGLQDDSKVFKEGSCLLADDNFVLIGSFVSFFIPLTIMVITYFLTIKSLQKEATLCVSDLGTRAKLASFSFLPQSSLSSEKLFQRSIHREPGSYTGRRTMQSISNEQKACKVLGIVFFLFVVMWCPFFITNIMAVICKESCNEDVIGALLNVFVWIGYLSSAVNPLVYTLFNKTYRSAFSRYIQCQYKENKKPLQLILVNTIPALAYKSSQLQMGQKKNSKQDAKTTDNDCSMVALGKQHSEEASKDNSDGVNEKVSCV

[4] = target: T2, 5-hydroxytryptamine receptor 2A; experiment: Agonist activity at human 5HT2A receptor stably expressed in Flp-In-T-REx-293 cells assessed as increase in Gq-mediated calcium flux by Fluo-4 direct dye based FLIPR Tetra assay; format: functional, cell-based
[5] = target: Mu-type opioid receptor (Homo sapiens) (UniProt P35372); experiment: Inhibition of MOR receptor (unknown origin); settings: concentration not given here
Chain of Mu-type opioid receptor (Homo sapiens) (P35372 whole entry): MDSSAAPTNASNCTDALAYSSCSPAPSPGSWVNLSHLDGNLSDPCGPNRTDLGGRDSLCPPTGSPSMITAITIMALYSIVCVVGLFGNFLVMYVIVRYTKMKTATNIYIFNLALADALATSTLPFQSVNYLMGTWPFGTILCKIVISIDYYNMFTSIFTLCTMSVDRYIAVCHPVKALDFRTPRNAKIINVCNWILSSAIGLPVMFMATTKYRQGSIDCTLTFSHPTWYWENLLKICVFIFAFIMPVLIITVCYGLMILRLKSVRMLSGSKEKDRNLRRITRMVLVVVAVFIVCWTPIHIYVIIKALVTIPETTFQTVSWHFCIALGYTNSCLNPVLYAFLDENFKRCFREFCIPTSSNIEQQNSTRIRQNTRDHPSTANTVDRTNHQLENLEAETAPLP

[6] = target: Sigma non-opioid intracellular receptor 1 (Homo sapiens, UniProt Q99720); experiment: Binding affinity to sigma 1 receptor (unknown origin) assessed as inhibition constant
Chain of Sigma non-opioid intracellular receptor 1 (Q99720 whole entry): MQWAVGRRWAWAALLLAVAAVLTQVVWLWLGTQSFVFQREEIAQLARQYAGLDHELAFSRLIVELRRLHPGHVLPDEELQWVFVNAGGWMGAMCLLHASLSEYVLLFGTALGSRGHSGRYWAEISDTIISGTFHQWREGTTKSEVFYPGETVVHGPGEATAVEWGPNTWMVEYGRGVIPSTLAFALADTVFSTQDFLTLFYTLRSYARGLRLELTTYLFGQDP

[7] = target: Muscarinic acetylcholine receptor M3 (Homo sapiens) (UniProt P20309); experiment: Inhibition of M3 receptor (unknown origin); settings: concentration not given here
Chain of Muscarinic acetylcholine receptor M3 (Homo sapiens) (P20309 whole entry, looked up): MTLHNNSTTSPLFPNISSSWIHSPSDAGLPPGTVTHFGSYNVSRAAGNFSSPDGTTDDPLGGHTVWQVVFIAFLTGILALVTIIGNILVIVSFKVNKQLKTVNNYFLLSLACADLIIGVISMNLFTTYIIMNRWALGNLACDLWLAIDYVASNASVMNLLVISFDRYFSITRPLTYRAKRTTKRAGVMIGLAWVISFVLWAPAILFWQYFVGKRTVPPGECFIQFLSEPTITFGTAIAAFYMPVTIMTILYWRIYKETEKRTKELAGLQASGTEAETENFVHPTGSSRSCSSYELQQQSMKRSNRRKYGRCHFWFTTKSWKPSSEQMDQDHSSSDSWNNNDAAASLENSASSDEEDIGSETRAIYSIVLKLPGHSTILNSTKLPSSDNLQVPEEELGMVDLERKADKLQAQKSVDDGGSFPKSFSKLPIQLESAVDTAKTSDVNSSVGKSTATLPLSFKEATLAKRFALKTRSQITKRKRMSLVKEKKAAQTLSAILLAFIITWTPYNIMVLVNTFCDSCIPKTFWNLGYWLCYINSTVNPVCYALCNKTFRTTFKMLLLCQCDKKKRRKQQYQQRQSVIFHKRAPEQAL

[8] = target: Histamine H4 receptor (Homo sapiens) (UniProt Q9H3N8); experiment: Inhibition of H4 receptor (unknown origin); settings: concentration not given here
[9] = target: T3, Alpha-1A adrenergic receptor (Homo sapiens) (UniProt P35348); experiment: Inhibition of alpha1A receptor (unknown origin); settings: concentration not given here
T3 sequence (whole entry): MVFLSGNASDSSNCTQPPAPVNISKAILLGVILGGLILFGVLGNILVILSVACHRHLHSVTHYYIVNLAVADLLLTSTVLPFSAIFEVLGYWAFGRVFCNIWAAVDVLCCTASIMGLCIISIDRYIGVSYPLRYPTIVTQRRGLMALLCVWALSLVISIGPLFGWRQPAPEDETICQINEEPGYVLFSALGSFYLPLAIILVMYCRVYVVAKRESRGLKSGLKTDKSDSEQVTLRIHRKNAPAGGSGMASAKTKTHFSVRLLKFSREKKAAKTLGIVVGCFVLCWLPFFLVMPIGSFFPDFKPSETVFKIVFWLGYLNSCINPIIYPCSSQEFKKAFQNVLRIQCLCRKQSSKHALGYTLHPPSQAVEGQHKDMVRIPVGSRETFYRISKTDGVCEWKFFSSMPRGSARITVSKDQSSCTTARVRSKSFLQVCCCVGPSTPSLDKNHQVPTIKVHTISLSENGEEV

[10] = target: T4, 5-hydroxytryptamine receptor 2C (Homo sapiens) (UniProt P28335); experiment: Agonist activity at human 5HT2C receptor stably expressed in Flp-In-T-REx-293 cells assessed as maximal Gq-mediated calcium flux by Fluo-4 direct dye based FLIPR Tetra assay relative to control; format: functional, cell-based; settings: filed as agonist
T4 sequence (whole entry): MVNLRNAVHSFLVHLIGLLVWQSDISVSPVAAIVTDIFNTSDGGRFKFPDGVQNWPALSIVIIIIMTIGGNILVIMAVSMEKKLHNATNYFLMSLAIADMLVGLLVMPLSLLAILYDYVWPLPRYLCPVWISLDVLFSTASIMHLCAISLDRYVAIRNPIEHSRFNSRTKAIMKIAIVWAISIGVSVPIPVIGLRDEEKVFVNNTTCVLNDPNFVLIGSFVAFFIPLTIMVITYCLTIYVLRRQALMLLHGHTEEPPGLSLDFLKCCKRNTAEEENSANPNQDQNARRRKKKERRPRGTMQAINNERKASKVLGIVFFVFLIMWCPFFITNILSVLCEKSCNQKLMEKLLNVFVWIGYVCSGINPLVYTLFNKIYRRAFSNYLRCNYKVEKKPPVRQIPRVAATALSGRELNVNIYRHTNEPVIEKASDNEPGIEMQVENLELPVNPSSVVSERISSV

[11] = target: 5-hydroxytryptamine receptor 6 (Homo sapiens, UniProt P50406); experiment: Binding affinity to 5HT6 receptor (unknown origin) assessed as inhibition constant
Chain of 5-hydroxytryptamine receptor 6 (P50406 whole entry): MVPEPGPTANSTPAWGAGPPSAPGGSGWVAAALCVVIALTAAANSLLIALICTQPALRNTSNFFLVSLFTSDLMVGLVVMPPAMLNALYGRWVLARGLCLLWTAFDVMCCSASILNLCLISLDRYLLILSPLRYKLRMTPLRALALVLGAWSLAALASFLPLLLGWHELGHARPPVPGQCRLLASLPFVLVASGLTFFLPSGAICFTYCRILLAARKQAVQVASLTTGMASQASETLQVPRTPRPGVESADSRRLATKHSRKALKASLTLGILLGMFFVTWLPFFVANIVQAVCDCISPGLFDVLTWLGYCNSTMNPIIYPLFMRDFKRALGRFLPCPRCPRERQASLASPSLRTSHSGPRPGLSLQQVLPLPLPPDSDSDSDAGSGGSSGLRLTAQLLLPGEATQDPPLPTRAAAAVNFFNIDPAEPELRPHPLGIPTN

[12] = target: T5, 5-hydroxytryptamine receptor 2C (Homo sapiens, UniProt P28335); experiment: Binding affinity to 5HT2C receptor (unknown origin) assessed as inhibition constant
T5 sequence (P28335 whole entry): T4 sequence (whole entry)

Homo sapiens = organism: Homo sapiens; experiment: Inhibition of BZP receptor (unknown origin); settings: concentration not given here
[13] = target: T6, Muscarinic acetylcholine receptor M4 (Homo sapiens) (UniProt P08173); experiment: Inhibition of M4 receptor (unknown origin); settings: concentration not given here
T6 sequence (whole entry): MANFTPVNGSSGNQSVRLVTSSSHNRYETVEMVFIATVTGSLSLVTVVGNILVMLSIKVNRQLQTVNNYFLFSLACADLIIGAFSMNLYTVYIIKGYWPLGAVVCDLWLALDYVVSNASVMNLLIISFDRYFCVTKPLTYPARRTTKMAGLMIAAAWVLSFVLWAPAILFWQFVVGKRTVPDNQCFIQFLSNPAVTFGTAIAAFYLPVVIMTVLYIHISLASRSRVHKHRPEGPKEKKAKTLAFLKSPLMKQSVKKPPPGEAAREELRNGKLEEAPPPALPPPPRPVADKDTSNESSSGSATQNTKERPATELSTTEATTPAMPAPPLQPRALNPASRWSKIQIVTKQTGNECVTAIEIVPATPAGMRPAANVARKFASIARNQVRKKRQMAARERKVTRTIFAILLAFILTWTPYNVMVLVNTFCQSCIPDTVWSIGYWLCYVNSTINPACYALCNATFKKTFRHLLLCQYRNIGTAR

[14] = target: Beta-2 adrenergic receptor (Homo sapiens) (UniProt P07550); experiment: Inhibition of beta 2 receptor (unknown origin); settings: concentration not given here
Chain of Beta-2 adrenergic receptor (Homo sapiens) (P07550 whole entry, looked up): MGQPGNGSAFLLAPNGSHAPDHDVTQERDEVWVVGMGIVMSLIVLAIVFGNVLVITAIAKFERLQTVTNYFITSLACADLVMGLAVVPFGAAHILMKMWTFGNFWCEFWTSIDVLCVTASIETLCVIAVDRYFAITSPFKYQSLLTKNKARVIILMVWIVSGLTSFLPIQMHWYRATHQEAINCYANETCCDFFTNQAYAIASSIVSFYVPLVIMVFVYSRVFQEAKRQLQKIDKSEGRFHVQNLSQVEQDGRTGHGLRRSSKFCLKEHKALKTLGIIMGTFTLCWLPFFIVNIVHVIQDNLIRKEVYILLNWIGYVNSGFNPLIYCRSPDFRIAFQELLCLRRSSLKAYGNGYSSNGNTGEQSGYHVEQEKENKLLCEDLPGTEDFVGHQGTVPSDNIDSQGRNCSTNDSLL

[15] = target: 5-hydroxytryptamine receptor 1B (Homo sapiens, UniProt P28222); experiment: Binding affinity to 5HT1B receptor (unknown origin) assessed as inhibition constant
Chain of 5-hydroxytryptamine receptor 1B (P28222 whole entry): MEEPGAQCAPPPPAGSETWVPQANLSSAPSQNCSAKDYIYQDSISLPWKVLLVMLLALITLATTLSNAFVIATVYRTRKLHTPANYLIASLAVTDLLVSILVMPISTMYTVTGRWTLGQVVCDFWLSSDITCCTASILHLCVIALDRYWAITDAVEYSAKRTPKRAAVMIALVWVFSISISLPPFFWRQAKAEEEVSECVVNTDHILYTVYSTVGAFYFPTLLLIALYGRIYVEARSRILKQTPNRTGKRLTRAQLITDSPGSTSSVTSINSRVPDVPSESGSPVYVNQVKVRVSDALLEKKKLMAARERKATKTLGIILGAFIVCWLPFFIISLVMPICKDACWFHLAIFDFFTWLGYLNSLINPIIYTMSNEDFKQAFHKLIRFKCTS

[16] = target: 5-hydroxytryptamine receptor 1E (Homo sapiens, UniProt P28566); experiment: Binding affinity to 5HT1E receptor (unknown origin) assessed as inhibition constant
Chain of 5-hydroxytryptamine receptor 1E (P28566 whole entry): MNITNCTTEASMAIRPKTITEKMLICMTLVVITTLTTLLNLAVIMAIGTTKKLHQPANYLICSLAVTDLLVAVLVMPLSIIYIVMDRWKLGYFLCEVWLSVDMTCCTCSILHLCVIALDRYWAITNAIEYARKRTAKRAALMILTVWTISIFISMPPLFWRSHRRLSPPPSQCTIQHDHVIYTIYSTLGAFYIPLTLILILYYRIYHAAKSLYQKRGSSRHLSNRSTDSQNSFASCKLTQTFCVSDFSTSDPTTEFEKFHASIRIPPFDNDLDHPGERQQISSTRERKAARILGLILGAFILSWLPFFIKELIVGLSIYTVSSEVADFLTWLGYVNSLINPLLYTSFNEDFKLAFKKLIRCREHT

Chain of Sodium-dependent dopamine transporter (Homo sapiens) (Q01959 whole entry): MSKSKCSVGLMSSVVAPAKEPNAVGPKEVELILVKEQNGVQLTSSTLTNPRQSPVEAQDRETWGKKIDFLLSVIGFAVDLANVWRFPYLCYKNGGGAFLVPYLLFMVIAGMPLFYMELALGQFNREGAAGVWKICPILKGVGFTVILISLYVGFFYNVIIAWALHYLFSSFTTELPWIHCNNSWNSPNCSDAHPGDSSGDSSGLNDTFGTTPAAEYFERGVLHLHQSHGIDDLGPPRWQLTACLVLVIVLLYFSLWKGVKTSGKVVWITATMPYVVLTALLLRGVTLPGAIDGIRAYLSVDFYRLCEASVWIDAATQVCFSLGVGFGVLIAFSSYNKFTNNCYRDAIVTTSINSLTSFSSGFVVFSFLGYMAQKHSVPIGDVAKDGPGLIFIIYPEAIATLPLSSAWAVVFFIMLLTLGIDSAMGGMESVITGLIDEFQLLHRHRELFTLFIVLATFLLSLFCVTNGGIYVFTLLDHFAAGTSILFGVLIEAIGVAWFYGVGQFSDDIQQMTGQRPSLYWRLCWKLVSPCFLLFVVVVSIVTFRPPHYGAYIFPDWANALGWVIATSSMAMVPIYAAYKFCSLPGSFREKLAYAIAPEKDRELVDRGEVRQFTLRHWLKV

inhibition [1] [%]	inhibition [2] [%]	Ki [3] [µM]	EC50 [4] [µM]	inhibition [5] [%]	Ki [6] [µM]	inhibition [7] [%]	inhibition [8] [%]	inhibition [9] [%]	Emax [10] [%]	Ki [11] [µM]	Ki [12] [µM]	inhibition (Homo sapiens) [%]	inhibition [13] [%]	inhibition [14] [%]	Ki [15] [µM]	Ki [16] [µM]	Structure (SMILES)
< 50	< 50	2.44	0.039	< 50	0.76	< 50	< 50	< 50	111	0.53	0.671	< 50	< 50	< 50			COc1cc(OC)c(C2NCCc3c2[nH]c2ccc(F)cc32)cc1OC (stereo not given)
< 50	< 50	0.113	0.0017	< 50	1.49	< 50	< 50	< 50	97.5	0.029	0.0252	< 50	< 50	< 50	0.0521	0.666	COc1cc(OC)c(C2NCCc3c2[nH]c2ccc(Cl)cc32)cc1OC (stereo not given)
< 50	< 50	0.225	0.0083	< 50	1.03	< 50	< 50	< 50	97.2	0.0477	0.0359	< 50	< 50	< 50	0.164	1.75	COc1ccc(C2NCCc3c2[nH]c2ccc(Cl)cc32)c(O)c1 (stereo not given)
< 50	< 50	0.25	0.0032	< 50		< 50	< 50	< 50	105	0.0688	0.0498	< 50	< 50	< 50	0.0708	1.41	COc1ccc(C2NCCc3c2[nH]c2ccc(F)cc32)c(O)c1 (stereo not given)
